The text below walks through data of US20050256132A1, “Use of ER selective NF-kB inhibitors for the treatment of sepsis” (priority 2003, published 2005).

SMILES strings stand for the structures.

Series [1] relates to CK. Kind of series: CK activity in lysate of ERα expressing HAECT-1 cells. Format: cell-based, human. As for the experimental part:
(A) The effect of compound 67 on NF-κB mediated luciferase reporter activity in HAECT-1 cells expressing ERα. […] (C) The effect of compound 67 on the human IL-6 promoter luciferase reporter activity in HAECT-1 cells expressing either ERα (squares) or ERβ (diamonds). (D) The remaining lysate from (A) was used to determine CK activity.
HAECT-1 cells (Chadwick C C, et al., Proc Natl Acad Sciences, 2005, 102(7): 2543-2548) were cultured in EGM (GIBCO, Rockville, Md.) containing 10% FBS, 1% GlutaMAX and 0.1% Antimycotic-Antibiotic in Falcon T-175 culture flasks at 34° C. in 5% CO2 and infected for four hours with Ad5-wt-ER virus. After overnight recovery, the cells were infected for 2 hours with the Ad5-3x(NFκB).Luc or Ad5-IL6.Luc virus. Compound 67 and 2 ng/ml IL-1 were added to the cells for 15-20 h and the cell lysate was assayed for luciferase activity and evaluated for CK expression (Stanbio Laboratories, Texas). The values are reported as mean±SEM with n=4 from at least 3 independent experiments.

For series [2], the system named is Listeria monocytogenes. In words: Murine Listeria model, cytokine response analysis. The settings on record: 10^5 cells/animal iv, 24 hours after challenge, vs control. In kind it is in vivo, BALB/c mice. As for the experimental part: Corn oil and Tween-stabilized vehicle was used as the control. All other reagents used in the experiments were purchased commercially from Sigma (St. Louis, Mo.) except for the cytokine assays which were purchased from Biosource (Camarillo, Calif.). The cytokines were measured by enzyme-linked immunoassay according to the manufacturer's instructions. The limits of detection of each assay are as follows: tumor necrosis factor α—3 pg/ml, interleukin-6—3 pg/ml, interferon gamma—1 pg/ml, monocyte chemo attractant protein—9 pg/ml. Endotoxin values were measured using a quantitative turbidometric assay (LAL5000) (Associates of Cape Cod, Woods Hole, Mass.).
The listeria model of systemic infection in mice was performed as previously described (Opal S. M., et al., Shock 15(4):285-290, 2001). Compound 67 was administered orally via an orogastric tube to BALB/c mice in an increasing dose schedule of from 1.5 mg/kg to 50 mg/kg. The BALB/c mice were purchased from Charles River Laboratories (Wilmington, Mass.). […]
For the cytokine response analysis, a standard dose of 10^5 cells/animal was administered intravenously, and cytokine measures were performed 24 hours after the intravenous challenge. […] The LD50 was calculated by the method of Reed and Meuch (Opal S. M., et al., J Infect Dis 187:70-76, 2003.).

Series [3] relates to Pseudomonas aeruginosa 12.4.4. Kind of series: Neutropenic rat model of Pseudomonas sepsis. In kind it is in vivo, Sprague-Dawley rats. As for the experimental part: The neutropenic rat model of pseudomonas sepsis has been previously described (Opal S M, et al., Shock 15(4):285-290, 2001). The experiments were conducted in specific pathogen-free female, Albino, Sprague-Dawley rats (Charles River Breeding Laboratories, Wilmington, Mass.) weighing 150-200 grams at the beginning of the experiments. Animals were treated with cefamandole (100 mg/kg intramuscularly daily) followed by oral colonization with Pseudomonas aeruginosa 12.4.4 (immunotype 6, A. McManus, San Antonio, Tex.) by orogastric feeding of 10^6 bacterial colony forming units at time 0, 48, and 96 hours.
Cyclophosphamide (Bristol-Myers, Evansville, Ind.) was given intraperitoneally at a dose of 150 mg/kg at time 0, and 50 mg/kg interperitoneally at 72 hours. Animals were followed daily with clinical examination of body temperature using a non-contact, digital, infrared thermometer (Horiba Instruments-Marksen Sciences, Phoenix, Ariz.) and body weight. Compound 67 (50 mg/kg) or corn oil control (n=12 in both groups) was administered orally by orogastric feeding beginning on day 4 after the first dose of cyclophosphamide and continuing for 8 days for the survival study. In an additional set of experiments, compound 1 (50 mg/kg) or control (n=8 in both groups) was administered every other day (day 4, 6, 8) and animals were sacrificed at day 8 for histopathologic studies. The distal 10 centimeters of ileum were resected and used for histopathological examination. The lumen was washed with phosphate buffered saline to remove residual particulate material prior to analysis and fixation. The mucosal surface epithelium was sampled for electromicroscopic studies and placed in gluteraldehyde fixative at the time of sacrifice. A 10 mm segment of ileal tissue was utilized for mucosal mass measurement.
Animals were assessed clinically and pathologically by daily body weight, body temperature, presence of bacteremia, circulating endotoxin levels, and pathologic evidence of damage to the gastrointestinal epithelium and liver by light microscopy and electron microscopy. The investigators performing the animal experiments were not blinded to the treatment assignment; however, an independent pathologist who was unaware of the treatment assignment for each animal performed the light microscopy and electron microscopy interpretation. A pathological injury scale of 0-4 was used to assess the degree of mucosal thinning, ulceration, and disruption.

For the compound `COc1ccccc1[C@H](c1cccc2ccccc12)[C@@](C)(C#N)C(=O)N1CCC(c2cccc(C(F)(F)F)c2)CC1` [Example 67, (S,S)-3-(2-methoxyphenyl)-2-methyl-3-(1-naphthyl)-2-({4-[3-(trifluoromethyl)phenyl]piperidin-1-yl}carbonyl)propanenitrile], the “elevation of CK activity” value in series [1] (at 1 μM) is recorded as “approximately 20%”. The “stimulation of CK expression” value in series [1] (compared with E2, FIG. 1D) is recorded as “did not stimulate CK expression comparable to E2”. In addition, the “cytokine levels (TNF, IL-6, MCP-1, interferon gamma) in bacteremic animals” value in series [2] is “unchanged”. The “electron microscopy of small intestinal enterocyte architecture, tight junctions, organelle structure” value in series [3] (50 mg/kg) was “greater preservation”. Besides, in series [3] (50 mg/kg orally daily from day 4, FIG. 2), the “prevention of lethality (Kaplan-Meier survival)” value is reported as “highly effective in the prevention of lethality”. Moreover, in series [3] (50 mg/kg, p<0.01 vs control, FIG. 4B), the “small bowel mucosal mass” value is reported as 76±21 mg/10 cm segment. Besides, in series [3] (day 6 after first cyclophosphamide dose, FIG. 3), the “levels of bacteremia and endotoxemia” value is reported as “Reduced levels”. In series [3] (scale 0-4, 50 mg/kg, day 8, p=0.02 vs control, FIG. 4A), the “histopathologic injury score of gastrointestinal mucosa” value came out at 0.6±0.1.
